The results in this text go back to US6426368B2, “Method for preventing and treating alcoholism” (Warner-Lambert Company, priority 1997, dated 2002).

What all share (assay type): in vivo, rat
In one experiment the test system is colonic pain threshold. The experiment in a line: Colonic pain threshold in normal rats (colonic distension). The note with it: control animals. The protocol:
(§1) Male Sprague-Dawley rats weighing 340 to 400 g were used in the study. The animals were housed three per cage in a regulated environment (20±1° C., 50±5% humidity, with light 8:00 AM to 8:00 PM). Under anethesia (ketamine 80 mg/kg i.p.; acepromazin 12 mg/kg i.p.), TNBS (50 mg/kg), or saline (1.5 mL/kg) was injected into the proximal colon (1 cm from the cecum). After the surgery, animals were individually housed in the regulated environment.
(§2) A balloon catheter (5-6 cm length) was inserted through the anus into the colon and kept in position (tip of balloon 5 cm from the anus) by taping the catheter to the base of the tail. The balloon was progressively inflated by step of 5 mm Hg, from 0 to 75 mm Hg, each step of inflation lasting 30 seconds. Each cycle of colonic distension was controlled by a standard barostat. The threshold corresponds to the pressure which produced the first abdominal contraction, at which time the cycle of distension was discontinued. To determine the colonic threshold, four cycles of distension were performed on the same animal.

Experiment [1] deals with TNBS-induced colonic allodynia. The experiment in a line: TNBS-induced chronic colonic allodynia in rats, colonic distension threshold. As to conditions: for Colonic Threshold: TNBS rats. The procedure:
GABA analogs were evaluated in rats suffering from chronic visceral allodynia induced by trinitrobenzene sulfonic acid (TNBS). […] In humans, digestive disorders are often associated with visceral pain. In these pathologies, the visceral pain threshold is decreased, indicating a visceral hypersensitivity. Consequently, the following study was designed to evaluate the effect of injection of TNBS into the colon on visceral pain threshold in an experimental model of colonic distension.
as §1, §2
In a third series, a group of eight rats treated with TNBS received a subcutaneous (sc) injection of gabapentin or CI-1008 30 minutes prior to initiation of the colonic distension cycle.
All test compounds were dissolved in saline except TNBS. TNBS was dissolved in EtOH 30% (w/v). Subcutaneous injection of vehicle was given in a volume of […].
Statistical significance between each group was determined using a one-way ANOVA followed by Student's unpaired t-test. Differences were considered statistically significant at p<0.05.
(§3) Pain threshold (pressure of distension inducing the first abdominal contraction) after distal colonic distension was determined at Day 7 in two groups of awake rats: control animals and TNBS-treated animals. […] Inflammatory parameters (colon weight, area of hyperemia and necrosis and colonic myeloperoxidase content) were measured in the proximal colon at Day 7 after TNBS treatment.

Experiment [2] relates to rectal distension-induced abdominal contractions. The experiment in a line: Abdominal response induced by rectal distension in rats (basal). The protocol:
Male Wistar rats weighing 250 to 350 g were surgically prepared for electromyography, according to a standard technique. Rats were anesthetized by i.p. injection of acepromazine and ketamine (Imalgene 1000, Rhöne-Mérieux, Lyon, France) at doses of 0.6 and 120 mg/kg, respectively. […] Electrodes were exteriorized on the back of the neck and protected by a glass tube attached to the skin. Animals were individually housed in polypropylene cages and kept in a temperature-controlled room (21° C.). They were allowed free access to water and food (UAR pellets, Epinay, France).
Electromyographic recording began 5 days after surgery. The electrical activity of abdominal striated muscles was recorded with an electroencephalograph machine (Mini VIII, Alvar, Paris, France) using a short-time constant (0.03 sec) to remove low-frequency signals (<3 Hz) and a paper speed of 3.6 cm/minute.
Rats were placed in plastic tunnels (6 cm diameter; 25 cm length) where they could not move, escape or turn around, in order to prevent damage to the balloon. They are accustomized to this procedure for 3 or 4 days before rectal distension (RD) in order to minimize stress reaction during experiments. […] The balloon used for distension was an arterial embolectomy catheter (Fogarty, Edwards Laboratories, Inc., Santa Ana, USA). Rectal distension (RD) was performed by insertion of the balloon (2-mm diameter; 2-cm long) in the rectum, at 1 cm of the anus, the catheter being fixed at the tail. It was inflated progressively by steps of 0.4 mL, from 0 to 1.6 mL, each step of inflation lasting 5 minutes. To detect possible leakage, the volume of water introduced in the balloon was checked by complete removal with a syringe at the end of the distension period. […]
(§4) Statistical analysis of the number of abdominal contractions occurring during each 5-minute period during RD was performed by one-way ANOVA followed by Student's paired t-test. Values were expressed as the mean±SEM, and differences were considered significant for p<0.05.

Experiment [3] relates to cyclooxygenase product prostaglandin E2 (PGE2). The experiment in a line: PGE2 content of gastric mucosa biopsies (ELISA) after indomethacin (Example 3). The note with it: any dose tested (1-200 mg/kg oral). The protocol: Gabapentin or pregabalin (CI-1008) were dissolved in water and administered orally at the following doses: 1, 10, 100, and 200 mg/kg in a volume of 1 mL. Control animals were dosed with an equal volume of vehicle (1 mL of water). Sixty minutes later, all the animals received 1 mL of a solution of indomethacin dissolved in 5% aqueous NaHCO3 (80 mg/kg). Control animals received 1 mL of 5% aqueous NaHCO3 orally. Experimental groups were as follows:
Gastric damage caused by indomethacin correlates with inhibition of the cyclooxygenase product prostaglandin E2 (PGE2). Animals were sacrificed by decapitation 4 hours post-indomethacin administration. The stomach was removed and opened along the greater curvature and its image digitized and stored on an optical disk using a 486-based PC computer equipped with CUE3 system imaging analysis software (Olympus Corp., Marietta, Ga., USA). Two 6-mm biopsies were taken from a constant region of the gastric mucosa located in each side of the glandular portion of the stomach, and their PGE2 content was measured using a commercially available ELISA kit (Assay Designs Inc., Ann Arbor, Mich., USA). The presence of gastric damage was determined using the retrieved electronic image, and the extent of damage was measured using the CUE3 imaging software. Data are expressed as a percent of gastric area damaged and the PGE2 content (pg/mL).
In general terms: In an ELISA, binding on a coated surface is turned into a signal by an enzyme label.

The subject of experiment [4] is lipopolysaccharide-induced delayed rectal allodynia. The experiment in a line: LPS-colonic hypersensitivity assay (LPS-induced delayed rectal allodynia). The note with it: 30 mg/kg 30 minutes prior to rectal distension; 12 hours after LPS 1 mg/kg IP; volume 0.4 mL; LPS alone 9.7±1.0, before LPS 3.7±1.0.
From the text: The GABA analogs also have been evaluated for their ability to control and treat gastrointestinal disorders characterized as IBD and IBS. The assay utilized to evaluate the GABA analogs measures the effects of compound on lipopolysaccharide-induced delayed rectal allodynia in rats. Intraperitoneal (IP) injections of the endotoxin lipopolysaccharide (LPS) are known to induce long-lasting hyperalgesia in somatic pain models. The following assay LPS-colonic hypersensitivity assay was designed to evaluate the effect of IP injections of LPS on pain visceral threshold in an experimental model of rectal distension.
Male Wistar rats weighing 250 to 350 g were surgically prepared for electromyography, according to a standard technique. […]
Electromyographic recording began 5 days after surgery. The electrical activity of abdominal striated muscles was recorded with an electroencephalograph machine (Mini VIII, Alvar, Paris, France) using a short-time constant (0.03 sec) to remove low-frequency signals (<3 Hz) and a paper speed of 3.6 cm/minute. […]
as §4

The test system of experiment [5] is intracolonic formalin-induced pain. The experiment in a line: Formalin-induced inflammatory colonic pain in rats. As to conditions: gabapentin 100, 300, 500 mg/kg sc; CI-1008 100, 200 mg/kg sc. The protocol: Administration of formalin into the wall of the rat colon causes acute inflammation and visceral pain. The aim of this study was to evaluate the antinociceptive activity of gabapentin and CI-1008 in visceral pain induced by colonic intrapariental injection of formalin.
Adult female Sprague-Dawley rats weighing 240 to 260 g were used in the study. The animals were housed three per cage in a regulated environment (20±1° C., 50±5% humidity, with light 8:00 AM to 8:00 PM) prior to use in the test.
Each test animal was placed in a transparent plastic cage (27×43×28 cm) with a layer of wood shavings on the floor. Drinking water was available. […] The injection site and the zone of diffusion of Evans Blue were recorded by image analysis software. […]
As listed in increasing order of pain intensity, these behaviors were: (i) abdominal licking and nibbling (L), (ii) body stretching, i.e., backward extension of the hind limbs (B), (iii) contraction of the flanks, sometimes evolving to a stretching attitude (C), and (iv) whole body contraction, the rat standing with its back curved, occasionally further graded according to the duration of the given episode: W1 for less than 30 seconds, W2 between 30 seconds and 1 minute, and W3 for more than 1 minute. Behaviors were recorded for each animal throughout the 2-hour test on individual charts. […]

For experiment [6], the system named is colonic inflammatory effect of TNBS. The experiment in a line: Colonic inflammatory parameters after TNBS in rats. As to conditions: gabapentin 100-500 mg/kg sc, CI-1008 30-200 mg/kg sc; Day 7 after TNBS. The procedure: as §3
Gabapentin (100, 300, and 500 mg/kg sc) and CI-1008 (30, 60, 100, and 200 mg/kg sc) were administered 30 minutes before colonic distension and measurement of the inflammatory parameters.

Turning to `CN1CC[C@]23c4c5ccc(O)c4O[C@H]2[C@@H](O)C=C[C@H]3[C@H]1C5` [Morphine], the “colonic pain threshold in normal conditions” value in the experiment with colonic pain threshold (0.3 mg/kg sc) was “significantly increased the colonic pain threshold”. Further, the “TNBS-induced decrease in pain threshold after colonic distension” value in experiment [1] (0.1 mg/kg sc) is “completely suppressed”.
`CC(C)C[C@H](CN)CC(=O)O` [CI-1008, (S)-3-(aminomethyl)-5-methylhexanoic acid]: in the experiment with colonic pain threshold (200 mg/kg sc), the “colonic pain threshold in normal conditions” value is “neither gabapentin (500 mg/kg sc) nor CI-1008 (200 mg/kg sc) modified the colonic pain threshold”. Further, the “number of cramps on rectal distension” value in experiment [2] (10 mg/kg injected 120 minutes before rectal distension, all distension volumes) is reported as “had a similar effect at all distension volumes”; in experiment [2] (30 mg/kg injected 120 minutes before rectal distension, all distension volumes), “had a similar effect at all distension volumes”; in experiment [2] (30 mg/kg, distension volumes of 0.4 and 0.8 mL), “reduced the number of cramps”. Moreover, in experiment [3], the “modification of indomethacin inhibition of PGE2” value is “Neither gabapentin nor CI-1008, at any dose tested, were able to significantly modify this effect”. Moreover, in experiment [4], the “number of abdominal contractions” value amounted to 1.8±0.9. In addition, the “pain score induced by intracolonic formalin” value in experiment [5] was “significantly and dose-dependently decreased the pain score”. Besides, in experiment [6], the “colonic inflammatory effect of TNBS (colon weight, hyperemia, necrosis, myeloperoxidase)” value is recorded as “neither gabapentin nor CI-1008 inhibited the colonic inflammatory effect of TNBS”. Also, the “Colonic Threshold” value is reported as 21.72 mm Hg in experiment [1] (30 mg/kg sc 30 min before distension, TNBS 17.81, Sham 33.44, Control 43.39) and 25.47 mm Hg in experiment [1] (60 mg/kg sc, TNBS 17.81, Control 43.39). In addition, the “allodynia induced by TNBS” value in experiment [1] (100 mg/kg sc) is listed as “completely suppressed”. The “inhibition of TNBS-induced colonic allodynia / decrease in pain threshold (dose relation)” value in experiment [1] (gabapentin 100, 300, 500 mg/kg sc, CI-1008 30, 60, 100, 200 mg/kg sc, 30 minutes before colonic distension) is on record as “dose-related inhibition”.
